Experimental data from patent US6710090B2, “Inhibitory or blocking agents of molecular generating and/or inducing functions” (priority 1994, dated 2004).
Where two headings read alike, the source gives them in different places.

Legend:
thrombin [1] = target: T1, thrombin (Homo sapiens, UniProt P00734); assay: Thrombin treated with Yoshixol added in fibrinogen, thromboelastgram; format: biochemical; parameters: thrombin (Behlinger Manheim-Yamanouchi Co.) was investigated by electrophoresis; purchased Behlinger Manheim-Yamanouchi Co
Procedure: Effect of Yoshixol (4 μl) on human blood coagulation and fibrin formation (thrombin was added to fibrinogen) were investigated by thromboelastgram (Hellige GMBH, West Germany). Also, a magnitude of fibrin network which is formed at human blood coagulation was investigated by a scanning electron microscopy. Coagulation of human blood without treatment with Yoshixol was started within 1-2 min so that maximum level of coagulation occurred approximately within 15 min, followed by gradual decrease due to activation of fibrinolytic system. Immediately after thrombin is added on fibrinogen, viscosity of the sample started to increase, reached to a maximum level within 5-6 minutes. This maximum level was maintained for periods of 6 hours which was observed (referred FIG. 3a). However, when Yoshixol (4 μl) was added in 0.4 ml of whole blood or fibrinogen (160 mg/dl), onset time of blood coagulation and fibrin formation was delayed to 4-5 minutes and maximum aggregation time was occurred within 6-8 minutes. Maximum level of coagulation after the treatment was inhibited by 90% of control which level was maintained over 6 hours of investigation (referred FIG. 3b).

[2] = system: anti-A blood serum, anti-B blood serum; assay: Function of serum antibodies for ABO blood types; format: biochemical, human
Procedure: It is also known that antibody has a structure of Y shape which consists of 2 pairs of light chain and heavy chain in generally, and that the fundamental structure is maintained by S—S bond. Serum antibody reaction of ABO blood types is important historically to understand various kinds of antigen-antibody reactions. In this invention, effect of Yoshixol (4 μl) on the standard judgment of ABO blood types was investigated by using human blood of A type, B type and O type (400 μl, respectively).

thrombin [3] = target: T1, thrombin; assay: Function and configuration of thrombin, electrophoresis; format: biochemical; parameters: thrombin (Behlinger Manheim-Yamanouchi Co.) was investigated by electrophoresis; purchased Behlinger Manheim-Yamanouchi Co; details: after treatment with Yoshixol 4 μl
Procedure: (§1) Each physiological effect of trypsin (Wakou Jyunyaku Ltd.) and thrombin (Behlinger Manheim-Yamanouchi Co.) was investigated by electrophoresis. When trypsin was added to bovine albumin (Sigma Co. Saint Louis, Mo., USA) or myoglobin (Sigma Co. Saint Louis, Mo., USA), each primary structure of proteins which consist of albumin was altered by proteolytic action of trypsin. In addition, when thrombin was added to human fibrinogen (Behlinger Manheim-Yamanouchi Co.), a primary structure of proteins which consists of fibrinogen was not found.

[4] = system: methitilin resistance staphylococcus aureus, MRSA (stock no. SCK18); format: cell-based; details: for colony formation unit (CFU): 24-hour incubation at 37° C., initial 10^8, control 10^10
[5] = system: human defibrinized serum, bovine albumin, human fibrinogen, myoglobin, anti-A blood type serum and anti-B blood type serum; assay: Primary structure of proteins, electrophoretic analysis of non-SDS wide page; format: biochemical; details: 1 ml protein solutions, Yoshixol 4 μl, heated denaturation
Procedure: Changes in molecular weight composition of the following macromolecular proteins (1 mole solution) before and after treatment with Yoshixol (4 μl) were investigated after heated denaturation by electrophoretic analysis of non-SDS wide page. The used macromolecules proteins solutions of 1 ml are human defibrinized serum, bovine albumin, human fibrinogen, myoglobin, anti-A blood type serum and anti-B blood type serum (Green Cross Co.). Even after treatment with Yoshixol, distribution of molecular weights on electrophoretic analysis was identical to that of the macromolecules proteins which is not treated (referred FIG. 7).

[6] = system: E79 double-chained DNA phage; assay: Effect on bacteriophage, numbers of plaques; format: cell-based, bacteriophage (indication bacteria pseudomonas aeruginosa)
Procedure: Yoshixol (4 μl) were added in 1 ml of phage solution (E79 double-chained DNA phage) which was adjusted on about 10^7 per 1 ml, and were mixed well. Then, 10 μl of the mixture sampled after 5, 10, 20, 30 minutes was diluted by quickly adding in 10 ml of medium, so that 100 μl of the phage-diluted solution put into the test tube as the upper plate with the warmed gelatin agar, which was mixed with 100 μl of the indication bacterial solution (pseudomonas aeruginosa) cultured for one night. Then, the adjusted solution of the phages in the test tube was dropped on the agar plate and, homogeneous surface of the upper agar plate was produced by smoothly rotating the plate on the table. After resting it on the table about 10 minute when multilayer gelatin agar sufficiently became solid, they were stocked into the incubator at 37° C. After one night incubation, numbers of plaques were counted. As a result, the numbers of plaques in the 5 min-treated phage solution, in 10 min-treated phage solution and in the […] phage solution with Yoshixol decreased to 33%, 15% and 6% of the plaques formation in the non-treated phage solution, respectively.

trypsin = assay: Function and configuration of trypsin, electrophoresis; format: biochemical; details: after treatment with Yoshixol 4 μl
Procedure: as §1

thrombus = assay: Thrombolytic effect on thrombus, phase contrasted microscopy; format: cell-based, human or canine
Procedure: In order to investigate a thrombolytic effect of Yoshixol on thrombus, 1 ml of human blood or canine blood were sampled by a syringe and transferred into the Petori-schale (grainer lab. GmHB) so that thrombus formation and rouleaux formation were observed under a phase contrasted microscopy (IMT-2, Olympus Co.). Then, 1 μl of Yoshixol was added in the blood sample when all visual fields could not be discriminated as an normal individual erythrocyte by thrombus formation. Then, a thrombolytic process of the thrombus was investigated and the process was recorded to a video tape via a collar video camera (CCD-IRIS, Sony Co.). The video pictures were analyzed as a liquid phenomena by an original software of dynamic state analysis. […] And, while original form of erythrocyte was recovered, each erythrocyte was marvelously dispersed from thrombus. […] And, Yoshixol has a potential to improve circulatory hindrance which is disturbed physiological role on original blood such as fluidability by being solidability. Yoshixol can apply as thrombolytic agents as well as inhibitory agents for thrombus formation.

C=C1CC(C)(C)C=CC1=O [Yoshixol, 4,4-dimethyl-6-methylene-2-cyclohexen-1-one]
aggregation reaction on thromboelastgram (thrombin [1]): any of aggregation reaction was not be found
primary structure of antiserums for ABO blood types (electrophoretic analysis) ([2]; after treatment of Yoshixol): any change in primary structure of antiserums did not find
blood aggregation in judgment of ABO blood type ([2]; antiserum treated with Yoshixol 4 μl, human blood A, B, O type 400 μl): any aggregation did not occur
physiological function of thrombin to fibrinogen (thrombin [3]): did not occur
primary structure of thrombin (electrophoresis) (thrombin [3]): did not show any electrophoretic changes
colony formation unit (CFU) ([4]; 0.25 μl per 1 ml of culture medium): 10^4 CFU
colony formation unit (CFU) ([4]; 2 μl per 1 ml of culture medium): 10^2 CFU
colony formation unit (CFU) ([4]; 10 μl per 1 ml of culture medium): zero
proliferation with evaporating component of Yoshixol ([4]; 50 μl in the whole space of the schale, indirect contact, 24 hours, 37° C.): did not occur
histological aspect of cell death, scanning electron microscopy ([4]; after Yoshixol): separated to an individual bacterial cell
distribution of molecular weights on electrophoretic analysis versus not treated [5]: identical
numbers of plaques, of the plaques formation in the non-treated phage solution ([6]; Yoshixol 4 μl in 1 ml phage solution (about 10^7 per ml), 5 min-treated): 33%
numbers of plaques, of the plaques formation in the non-treated phage solution ([6]; Yoshixol 4 μl in 1 ml phage solution, 10 min-treated): 15%
numbers of plaques, of the plaques formation in the non-treated phage solution ([6]; Yoshixol 4 μl in 1 ml phage solution, 15 min-treated): 6%
plaques formation ([6]; Yoshixol 4 μl in 1 ml phage solution, treated over 20 min): plaques formation did not find
physiological function of trypsin to bovine albumin, myoglobin (trypsin): did not occur
primary structure of trypsin (electrophoresis) (trypsin): did not show any electrophoretic changes
hemolysis due to swelling and rupturing each erythrocyte (thrombus; 1 μl of Yoshixol in 1 ml blood sample): did not occur
thrombus after adding Yoshixol (thrombus; 1 μl of Yoshixol in 1 ml blood sample with thrombus): completely individualized to each erythrocyte
